According to patent US20140005070A1, “MARKERS ASSOCIATED WITH CYCLIN-DEPENDENT KINASE INHIBITORS” (Novartis AG, priority 2011, published 2014):

What was measured:
MCL1 = test: Dog toxicology study, TaqMan mRNA in white blood cells after CDKI(7): MCL1; type: in vivo
Experimental: (§1) As part of a dog toxicology study, CDKI(7) was administered to dogs. White blood cells were harvested and MEPCE, MYC and MCL1 gene expression was assessed as PD markers. mRNA levels of each of these PD markers were measured by TaqMan® at various time points after CDKI(7) treatment.
(§2) The study had three groups of three dogs each. Dogs in Group 1 (#101, #102, and #103) were treated with CDKI(7) at 0.5 mg/kg, dogs in Group 2 (#104, #105, and #106) were treated at 1 mg/kg CDKI(7) and dogs in Group 3 (#107, #108, and #109) were treated at 2 mg/kg CDKI(7). Samples were collected before treatment (0 hour), 3 hours, 7 hours and 24 hours after treatment for a total of 12 samples per group. Blood samples were received frozen in QIAGEN RNA protect® Animal Blood tubes (Cat. # 76554 QIAGEN-Valencia, Calif., USA). RNA samples were extracted using the QIAGEN RNeasy® Protect Animal Blood kit (Cat. # 73224). RNA samples were quantified using the RNA Quant-iT RNA® assay from Invitrogen (Cat. # Q32852 Invitrogen—Grand Island, N.Y., USA) and read on an Invitrogen Qubit fluorometer® (Cat. # Q32857). First strand cDNA synthesis was performed on 500 ng of RNA in a reaction volume of 20 μl using a High Capacity cDNA Reverse Transcription Kit® from Applied Biosystems (Cat. # 4368814 Applied Biosystems, Carlsbad, Calif., USA). The cDNA samples were then diluted to obtain a 10 ng cDNA input for the TaqMan® reaction. TaqMan® reactions were run in triplicates using a TaqMan® Gene Expression Master Mix from Applied Biosystems (Cat. # 4369016) on an ABI 7500® machine. The 18S rRNA level was used as an endogenous control for variations in cDNA input. The relative quantification method was used to analyze the data; this method uses one sample as a calibrator sample and express mRNA levels relative to that sample. The results were expressed as RQ values (Relative Quantification) with RQ Min and RQ Max values determining a 95% confidence interval for the real RQ value. The samples were grouped according to the dose and each group was treated as a separate experiment with one of the pre-dose samples used as a calibrator sample. The logarithm of the RQ values are plotted so that increases or decreases from the initial value can be more easily represented; on a logarithmic scale: a 10-fold increase or 10-fold decrease in RQ value are represented as +1 and −1 respectively.
The MCL1 gene encodes a pro-survival factor that is often amplified in cancer and we have previously shown that its mRNA is short-lived and sensitive to CDK9 inhibition (see FIG. 2). The mRNA levels were determined by TaqMan® using the relative quantification method. The calibrator samples are dog #101 at 0 hour timepoint for the 0.5 mg/kg dose of CDKI(7), dog #104 at 0 hour timepoint for the 1 mg/kg dose and dog #107 at 0 hour timepoint for the 2 mg/kg dose. The logarithm (base 10) of the RQ values is plotted with the error bars representing the 95% confidence interval.

MEPCE [1] = test: Western blot of MEPCE protein in NCI-H929 cells (FIG. 4); type: cell-based
Experimental: After treatment with a CDKI, cells were lysed in modified RIPA buffer containing 50 mM TRIS pH 7.4, 150 mM NaCl, 1 mM EDTA, 1% Brij-35, 0.1% deoxycholate, protease inhibitors (Roche Molecular Biochemicals, Mannheim, Germany). SDS-PAGE (4-12% gel) was used to resolve the proteins in the lysate. After electrophoresis, the proteins were electrotransferred onto a polyvinylidene fluoride microporous membrane and immunodetected using standard procedures. FIG. 4 is a Western blot of the multiple myeloma line NCI-H929, treated with CDKI(7) or DMSO and gene expression analyzed at certain time points during the treatment. […] Thus, the reduction in expression of genes in response to CDKI seen at the mRNA level by microarray is confirmed at the protein level by Western blotting.

MEPCE [2] = test: Dog toxicology study, TaqMan mRNA in white blood cells after CDKI(7): MEPCE; type: in vivo
Experimental: as §1, §2
The mRNA levels were determined by TaqMan® using the relative quantification method. The calibrator samples are dog #101 at 0 hour timepoint for the 0.5 mg/kg dose of CDKI(7), dog #104 at 0 hour timepoint for the 1 mg/kg dose and dog #107 at 0 hour timepoint for the CDKI(7) 2 mg/kg dose. The logarithm (base 10) of the RQ values is plotted with the error bars representing the 95% confidence interval. […] The amplitude and the duration of the down regulation are dose-dependent; at 0.5 mg/kg CDKI(7) the maximum down regulation is 3.2-fold at 3 hours, at 1 mg/kg CDKI(7) it is 5.2-fold at 7 hours and at 2 mg/kg it is 14-fold at 7 hours.

O=C(Nc1cc(-c2cccc(NCC3CCOCC3)n2)c(Cl)cn1)[C@@H]1CCCNC1 [CDKI(7)]
MCL1 mRNA regulation (MCL1; 0.5 mg/kg): no significant down regulation
increase of MCL1 mRNA (MCL1; 1 mg/kg, 7 hour time point, two out of three dogs): 2 fold
MCL1 down regulation at 7 hours (MCL1; 2 mg/kg, 7 hours): not at 7 hours
MCL1 mRNA regulation (MCL1; 2 mg/kg, FIG. 8): consistent down regulation
maximum down regulation of MCL1 mRNA (MCL1; 2 mg/kg, at 3 hours, all three dogs): 2.7 fold
MEPCE protein expression at the 16 hour time point (MEPCE [1]; NCI-H929, Western blot, 16 hour): very little to undetectable levels of protein expression
MEPCE protein expression over time (MEPCE [1]; NCI-H929 multiple myeloma line, Western blot, versus DMSO): reduced over time
maximum down regulation of MEPCE mRNA (MEPCE [2]; 0.5 mg/kg, at 3 hours): 3.2 fold
maximum down regulation of MEPCE mRNA (MEPCE [2]; 1 mg/kg, at 7 hours): 5.2 fold
MEPCE mRNA levels at 24 hours (MEPCE [2]; 2 mg/kg, one of the dogs (#109)): some degree of down regulation
maximum down regulation of MEPCE mRNA (MEPCE [2]; 2 mg/kg, at 7 hours): 14 fold
MEPCE mRNA levels at 24 hours (MEPCE [2]; 0.5 and 1 mg/kg): back to pre-treatment levels
MEPCE mRNA regulation (MEPCE [2]; all three doses (0.5, 1, 2 mg/kg), FIG. 6): clear down regulation
